Experimental data reported in patent publication US8669088B2, “Enzyme associated with equol synthesis” (Otsuka Pharmaceutical Co., Ltd., priority 2007, dated 2014).

Assays:
[1] = tested on: dihydrodaidzein; assay: Tetrahydrodaidzein biosynthesis activity in centrifuged supernatant of disrupted cell material and NADH or NADPH dependency (Example B2); type: biochemical, Lactococcus 20-92 strain; conditions: centrifuged supernatant of disrupted cells; 37° C., 2 hours; HPLC (FIG. 11)
Description: The frozen cells were thawed and centrifuged at 4° C. for 15 minutes (5,000×G). The pellet was used in the test below. First, the pellet (wet weight 2.7 g) was suspended in 10 ml of a 0.1 M phosphate-potassium solution containing 1 mM PMSF and 5 mM sodium hydrosulfite. After preheating at 37° C. for 5 minutes, lysozyme was added in an amount of 100 mg per gram of the pellet (wet weight) to cause a reaction at 37° C. for 1.5 hours. Then, an equivalent amount of 0.1 M dipotassium phosphate solution was added to the reaction mixture, and the mixture was vigorously agitated with a vortex mixer after adding zirconia-silica beads (3 ml). The cells were then disrupted with a sonicator (Branson Sonifier Cell Disruptor 200) (3 cycles of a 5-minute sonication and a 2-minute rest). The disrupted cell suspension was centrifuged at about 10,000×G for 15 minutes to obtain a supernatant, which was then used as an enzyme source. An enzyme reaction mixture of the composition below was prepared, and was incubated at 37° C. for 2 hours. After incubation, 5 mL of ethyl acetate was added to the enzyme reaction product for extraction. Then, the product was dried to prepare a sample for HPLC analysis. [table]

[2] = tested on: daidzein; assay: Dihydrodaidzein biosynthesis activity in centrifuged supernatant of disrupted cell material and coenzyme dependency (Example A1); type: biochemical, Lactococcus 20-92 strain; conditions: supernatant of disrupted cells; 37° C., 2 hour; HPLC (FIG. 1)
Description: The frozen cells (67 mL bottle×2) were thawed, and centrifuged at 4° C. at 8,000 rpm for 10 minutes. The pellet was used in the test below. First, the pellet was suspended in 2 ml of a 0.1 M phosphate-potassium solution containing 1 mM PMSF (Wako Pure Chemical Industries, Ltd.), 2 mM DTT (Wako Pure Chemical Industries, Ltd.) and 5 mM sodium hydrosulfite (Wako Pure Chemical Industries, Ltd.). The suspension was supplied to two 2 ml tubes with screw caps (Assist) and pre-supplemented with […] zirconia/silica beads (BioSpec Products, Inc.). The cells were disrupted using FastPrep® FP100A (Thermo ELECTRON CORPORATION) (6500 rpm, 10 seconds, ice cooling×8). The resulting liquid was centrifuged to obtain supernatant. The suspension of disrupted cell was centrifuged at about 10,000 rpm at 4° C. for 10 minutes to obtain a supernatant, which was then diluted to 4.5 mL with 0.1 M potassium phosphate solution containing 1 mM PMSF, 2 mM DTT and 5 mM sodium hydrosulfite. This was used as an enzyme source.
An enzyme reaction mixture of the composition below was prepared, and the mixture was incubated at 37° C. for 2 hour. After incubation, 3 mL of ethyl acetate was added to the enzyme reaction mixture for extraction. After drying, the extract was dissolved by the mobile phase (eluent). The dissolved product was analyzed by HPLC. […]

[3] = tested on: dihydrodaidzein synthesis enzyme gene; assay: Induction of expression of dihydrodaidzein synthesis enzyme gene by daidzein, RT-PCR (Example A7); type: cell-based, Lactococcus 20-92 strain; conditions: 10 mg/L daidzein in modified GAM broth, eight hours, 37° C., anaerobic; RT-PCR (FIG. 6)
Description: Sealed Lactococcus 20-92 strain kept at 4° C. was incubated for eight hours in a modified GAM broth culture medium, that contains 10 mg/L daidzein (Funakoshi Co., Ltd.) or no daidzein, at 37° C. under an anaerobic condition. 25 mL of the culture solution was transferred to a 50 mL tube, and centrifuged for ten minutes at 3500 rpm, 4° C. The culture medium was removed by decantation and cells were collected. The collected cells were immediately frozen by liquid nitrogen. Then, the entire RNA was extracted and purified using 1 mL of TRIzol solution (Invitrogen) according to the instruction. The purified entire RNA was processed by DNase I (Invitrogen) to remove the genome DNA, and used for synthesis of first-strand cDNA.
From 2 μg of the entire RNA thus processed by DNaseI, the first-strand cDNA (reverse transcription) was synthesized using SuperScript® First-Strand Synthesis System for RT-PCR (Invitrogen). The synthesis of the first-strand cDNA was carried out using Random Hexamer mix as an extension primer according to the instruction. […] The final reaction liquid was used as a template for RT-PCR.
The dihydrodaidzein synthesis enzyme gene was amplified through RT-PCR using the four final reaction products as detailed in (2) of the present Example as templates. The expression amounts were compared with each other. […]

| SMILES | coenzyme dependency of the conversion of dihydrodaidzein into tetrahydrodaidzein [1] | coenzyme dependency of the conversion of daidzein into dihydrodaidzein [2] | expression of mRNA of dihydrodaidzein synthesis enzyme gene [3] |
| --- | --- | --- | --- |
| NC(=O)C1=CN([C@@H]2O[C@H](COP(=O)(O)OP(=O)(O)OC[C@H]3O[C@@H](n4cnc5c(N)ncnc54)[C@H](O)[C@@H]3O)[C@@H](O)[C@H]2O)C=CC1 [NADH] | dependent | dependent | – |
| O=c1c(-c2ccc(O)cc2)coc2cc(O)ccc12 [daidzein, 4′,7-dihydroxy isoflavone] | – | – | induced the expression of mRNA |
